In patent US10829473B2, “Modulators of the cystic fibrosis transmembrane conductance regulator protein and methods of use” (AbbVie Overseas S.Á.R.L., priority 2017, dated 2020):
Read-outs that look alike come from different tables or passages of the source.

Target: T1, F508delCFTR (Homo sapiens, UniProt P13569, DEL508-508)
T1 construct: expressed in transfected cells; host or cells: CFBE41o- human lung derived epithelial cells (CFBE41o-F508delCFTR-HRP), doxycycline-inducible
Experiment: Cell Surface Expression-Horse Radish Peroxidase (CSE-HRP) Assay;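 on EC50 (with co-corrector): co-corrector chromenyl benzoic acid corrector at 2 or 3 µM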;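 on Maximum % activity (without co-corrector): % of on-plate positive control chromenyl benzoic acid corrector at 2 or 3 µM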
Assay type: cell-based
Details: for Maximum % activity (with co-corrector) / Emax: maximum at any tested concentration; for Emax: read-out: Maximum % activity (without co-corrector)
How it was run: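 Corrector compounds were given as 8-point 3-fold series from 20 or 30 μM, with or without a 2 μM co-corrector, for 18-24 h at 33 °C. Surface HRP was read by luminol luminescence as % of positive control; variable-Hill-slope sigmoidal fitting gave EC50 from triplicate plates.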

[1] = test compound alone, without co-corrector, read-out: EC50 (without co-corrector)
[2] = with co-corrector, read-out: EC50 (with co-corrector)
[3] = test compound with co-corrector
[4] = test compound with co-corrector, read-out: EC50 (with co-corrector)
[5] = test compound without co-corrector
[6] = test compound without co-corrector, read-out: EC50 (without co-corrector)

T1 sequence (P13569 with tags, fused parts or gaps DEL508-508): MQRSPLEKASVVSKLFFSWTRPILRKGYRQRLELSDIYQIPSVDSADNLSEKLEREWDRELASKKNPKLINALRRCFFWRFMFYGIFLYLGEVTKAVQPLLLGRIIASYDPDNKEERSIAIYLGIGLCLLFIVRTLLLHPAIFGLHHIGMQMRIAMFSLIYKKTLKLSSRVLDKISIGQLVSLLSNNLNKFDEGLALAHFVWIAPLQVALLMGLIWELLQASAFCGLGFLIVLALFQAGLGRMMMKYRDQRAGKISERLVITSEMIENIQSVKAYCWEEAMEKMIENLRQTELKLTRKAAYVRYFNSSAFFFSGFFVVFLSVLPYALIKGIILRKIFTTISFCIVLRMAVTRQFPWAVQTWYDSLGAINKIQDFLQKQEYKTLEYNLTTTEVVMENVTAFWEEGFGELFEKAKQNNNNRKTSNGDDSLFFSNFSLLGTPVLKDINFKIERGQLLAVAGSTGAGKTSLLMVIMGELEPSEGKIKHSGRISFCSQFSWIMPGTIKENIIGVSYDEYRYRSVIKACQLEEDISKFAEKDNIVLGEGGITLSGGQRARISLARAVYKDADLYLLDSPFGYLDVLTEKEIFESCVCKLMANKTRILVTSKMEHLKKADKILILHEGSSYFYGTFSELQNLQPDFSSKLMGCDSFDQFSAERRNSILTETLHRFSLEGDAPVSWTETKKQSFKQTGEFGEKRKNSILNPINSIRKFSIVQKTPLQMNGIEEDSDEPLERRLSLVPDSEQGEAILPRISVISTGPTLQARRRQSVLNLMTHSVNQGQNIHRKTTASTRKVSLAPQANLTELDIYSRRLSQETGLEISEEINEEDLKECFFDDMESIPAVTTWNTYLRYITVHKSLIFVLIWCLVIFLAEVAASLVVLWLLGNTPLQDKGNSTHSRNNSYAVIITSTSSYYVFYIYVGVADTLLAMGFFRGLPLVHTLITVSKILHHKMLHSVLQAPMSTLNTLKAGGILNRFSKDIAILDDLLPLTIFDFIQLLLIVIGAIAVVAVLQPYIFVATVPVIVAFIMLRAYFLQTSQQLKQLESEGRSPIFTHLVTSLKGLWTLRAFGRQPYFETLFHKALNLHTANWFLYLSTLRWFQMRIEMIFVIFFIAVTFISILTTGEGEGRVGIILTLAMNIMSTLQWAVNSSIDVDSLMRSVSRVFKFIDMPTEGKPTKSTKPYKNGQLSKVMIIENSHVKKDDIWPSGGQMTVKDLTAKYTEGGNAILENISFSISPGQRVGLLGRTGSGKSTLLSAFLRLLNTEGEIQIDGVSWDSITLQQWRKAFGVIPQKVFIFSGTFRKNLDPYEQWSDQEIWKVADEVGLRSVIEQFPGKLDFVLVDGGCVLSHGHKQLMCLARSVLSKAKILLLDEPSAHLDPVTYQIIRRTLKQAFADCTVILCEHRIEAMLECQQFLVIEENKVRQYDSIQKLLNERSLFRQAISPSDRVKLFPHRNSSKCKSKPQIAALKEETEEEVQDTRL

SMILES | EC50 [1] [µM] | Maximum % activity (with co-corrector) (with co-corrector) | EC50 [2] [µM] | Emax (without co-corrector) [%] | Maximum % activity (with co-corrector) [3] | EC50 [4] [µM] | Emax [5] [%] | EC50 [6] [µM]
CCOc1ccc(OC)c(C2(C(=O)NS(=O)(=O)c3cccc4ncccc34)CC2)c1 [Example I-31, 1-(5-ethoxy-2-methoxyphenyl)-N-(quinoline-5-sulfonyl)cyclopropane-1-carboxamide] | < 3 | +++ (≥350) | < 3 | > 150 |  |  |  | 
COc1ncc(C2CCC2)cc1C1(C(=O)NS(=O)(=O)c2cccc3ncccc23)CC1 [Example I-4, 1-(5-cyclobutyl-2-methoxypyridin-3-yl)-N-(quinoline-5-sulfonyl)cyclopropane-1-carboxamide] | < 3 | +++ (≥350) | < 3 | > 150 |  |  |  | 
CNC1(c2ccc(OC)c(C3(C(=O)NS(=O)(=O)c4cccc5ncccc45)CC3)c2)CC1 [Example I-85, 1-{2-methoxy-5-[1-(methylamino)cyclopropyl]phenyl}-N-(quinoline-5-sulfonyl)cyclopropane-1-carboxamide] | > 10 | ++ (≥150 and <350) | 3 to 10 | < 50 |  |  |  | 
COc1ccc(C2CCC2)cc1C1(C(=O)NS(=O)(=O)c2cccc3c2CCCN3)CC1 [Example I-16, 1-(5-cyclobutyl-2-methoxyphenyl)-N-(1,2,3,4-tetrahydroquinoline-5-sulfonyl)cyclopropane-1-carboxamide] | 3 to 10 | +++ (≥350) | < 3 | > 150 |  |  |  | 
CCOc1ccc(C(C)(C)OCC)cc1C1(C(=O)NS(=O)(=O)c2cccc3nc(C)ccc23)CC1 [Example I-103, 1-[2-ethoxy-5-(2-ethoxypropan-2-yl)phenyl]-N-(2-methylquinoline-5-sulfonyl)cyclopropane-1-carboxamide] | < 3 | +++ (≥350) | < 3 | > 150 |  |  |  | 

Next, values leading:

EC50 [1] [µM] | Maximum % activity (with co-corrector) (with co-corrector) | EC50 [2] [µM] | Emax (without co-corrector) [%] | Maximum % activity (with co-corrector) [3] | EC50 [4] [µM] | Emax [5] [%] | EC50 [6] [µM] | SMILES
 |  |  |  | ++ (≥150 and <350) | 3 to 10 | 50 to 150 | 3 to 10 | COc1cc(C2(C(=O)NS(=O)(=O)c3cccc4ncccc34)CC2)c(Cl)cn1 [GII-6, 1-(5-chloro-2-methoxypyridin-4-yl)-N-(quinoline-5-sulfonyl)cyclopropane-1-carboxamide]
 |  |  |  | +++ (≥350) | < 3 | > 150 | < 3 | COc1cnc(OC(C)C)c(C2(C(=O)NS(=O)(=O)c3cccc4nc(C)ccc34)CC2)c1 [Example GI-76, 1-{5-methoxy-2-[(propan-2-yl)oxy]pyridin-3-yl}-N-(2-methylquinoline-5-sulfonyl)cyclopropane-1-carboxamide]
< 3 | +++ (≥350) | < 3 | > 150 |  |  |  |  | CCOc1ccc(C)cc1C1(C(=O)NS(=O)(=O)c2cccc3nc(OC)ccc23)CC1 [II-83]
> 10 | + (<150) | > 10 | < 50 |  |  |  |  | O=C(NS(=O)(=O)c1cccc2c(O)cccc12)C1(c2cccc(Cl)c2)CC1 [Example III-57, 1-(3-chlorophenyl)-N-(5-hydroxynaphthalene-1-sulfonyl)cyclopropane-1-carboxamide]
 |  |  |  | +++ (≥350) | 3 to 10 | > 150 | 3 to 10 | COCCOc1ncc(C)cc1C1(C(=O)NS(=O)(=O)c2cccc3[nH]ccc23)CC1 [GII-53, N-(1H-indolc-4-sulfonyl)-1-[2-(2-methoxyethoxy)-5-methylpyridin-3-yl]cyclopropane-1-carboxamide]
 |  |  |  | +++ (≥350) | 3 to 10 | > 150 | 3 to 10 | CCc1cnc(N2CCC(OC(C)C)CC2)c(C2(C(=O)NS(=O)(=O)c3cccc4nc(C)ccc34)CC2)c1 [GII-55, 1-(5-ethyl-2-{4-[(propan-2-yl)oxy]piperidin-1-yl}pyridin-3-yl)-N-(2-methylquinoline-5-sulfonyl)cyclopropane-1-carboxamide]
